Measurements taken from patent publication US11072598B2, “Somatostatin modulators and uses thereof” (CRINETICS PHARMACEUTICALS, INC., priority 2017, dated 2021).

Biological target: T1, human somatostatin receptor subtype 2 (Homo sapiens, UniProt P30874)
T1 construct: expressed in transfected cells
Assay: cAMP functional assay for SSTR2 agonists
Format: cell-based
Conditions: inhibition of cAMP activities via human SST2 receptor (SSTR2), CHO-K1 cells; read-out: EC50
Description: General overview: All five SSTR subtypes are Gi coupled G-protein coupled receptors (GPCRs) that lead to decreases in intracellular cyclic AMP (cAMP) when activated by an agonist. Therefore, measurement of intracellular cAMP levels can be used to assess whether compounds of the invention are agonists of SSTR subtypes (John Kelly, Troy Stevens, W. Joseph Thompson, and Roland Seifert, Current Protocols in Pharmacology, 2005, 2.2.1-2.2). One example of an intracellular cAMP assay is described below. cAMP assay protocol:
Four days prior to the assay, 5,000 Chinese hamster ovary cells (CHO-K1, ATCC #CCL-61) stably expressing the human somatostatin receptor subtype 2 are plated in each well of a 96-well tissue culture-treated plate in Ham's F12 growth media (ThermoFisher #10-080-CM) supplemented with 10% donor bovine serum (Gemini Bio-Products #100-506), 100 U/mL penicillin; 100 ug/mL streptomycin; 2 mM L-glutamine (Gemini Bio-Products #400-110) and 0.2 mg/mL hygromycin B (GoldBio #31282-04-9). The cells are cultured at 37° C., 5% CO2 and 95% humidity. On the day of the assay, the media is aspirated and the cells are treated with 50 μL of 1.6 μM NKH477 (Sigma #N3290) plus various dilutions of compounds of the invention in assay buffer [1× Hank's Balanced Salt Solution (ThermoFisher #SH3058802), 0.5 mM HEPES pH 7.4, 0.1% bovine serum albumin, 0.2 mM 3-Isobutyl-1-methylxanthine (IBMX, VWR #200002-790)]. The cells are incubated for 20 minutes at 37° C. […] The cells are treated with 50 μL of lysis buffer (HRTF cAMP kit, Cisbio). The lysate is transferred to 384-well plates and cAMP detection and visualization antibodies are added and incubated for 1-24 hours at room temperature. The time-resolved fluorescent signal is read with a Tecan M1000Pro multiplate reader. The intracellular cAMP concentrations are calculated by regression to a standard curve and are plotted vs. the concentration of the compounds of the invention and the EC50 of the compounds are calculated using standard methods. All data manipluations are in GraphPad Prism v6.

T1 sequence (P30874 whole entry): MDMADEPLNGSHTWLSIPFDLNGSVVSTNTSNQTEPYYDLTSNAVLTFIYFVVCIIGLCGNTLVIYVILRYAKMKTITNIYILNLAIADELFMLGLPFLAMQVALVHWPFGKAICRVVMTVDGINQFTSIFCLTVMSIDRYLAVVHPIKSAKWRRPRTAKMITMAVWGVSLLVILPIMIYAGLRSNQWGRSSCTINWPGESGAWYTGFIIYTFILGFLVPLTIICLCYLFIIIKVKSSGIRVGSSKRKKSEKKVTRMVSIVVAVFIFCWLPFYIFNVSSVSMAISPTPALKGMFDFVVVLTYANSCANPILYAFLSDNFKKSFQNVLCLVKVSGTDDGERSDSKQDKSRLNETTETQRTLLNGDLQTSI

For COc1cc(F)cc2nc(-c3c(N)ncc(-c4ccc(F)c(C)c4)c3N3CCC(N)CC3)[nH]c12 [Compound 1-91, 4-(4-aminopiperidin-1-yl)-5-(4-fluoro-3-methylphenyl)-3-(5-fluoro-7-methoxy-1H-1,3-benzodiazol-2-yl)pyridin-2-amine], the EC50 was under 0.01 µM.

Cc1cc(Cl)cc(-c2cnc(N)c(C=NOC(C)(C)C)c2N2CCC(N)CC2)c1 [Compound 1-38] gave an EC50 of under 0.01 µM.

Work on Cc1cc(F)cc(-c2cnc(N)c(-c3nc4ncccc4[nH]3)c2N2CCC(N)CC2)c1 [Compound 1-52, 4-(4-aminopiperidin-1-yl)-5-(3-fluoro-5-methylphenyl)-3-{1H-imidazo[4,5-b]pyridin-2-yl}pyridin-2-amine] yielded an EC50 of under 0.01 µM.

Work on Cc1cc(F)cc(-c2cnc(N)c(-c3nc4cc(Cl)ccc4[nH]3)c2N2CC[C@@H](N)[C@H](C#N)C2)c1 (relative stereo) [Compound 1-42, trans-4-amino-1-[2-amino-3-(5-chloro-1H-1,3-benzodiazol-2-yl)-5-(3-fluoro-5-methylphenyl)pyridin-4-yl]piperidine-3-carbonitrile] yielded an EC50 of under 0.01 µM.

In the case of C#Cc1ccc2[nH]c(-c3c(N)ncc(-c4cc(C)cc(F)c4)c3N3CCC(N)CC3)nc2c1 [Compound 1-65, 4-(4-aminopiperidin-1-yl)-3-(5-ethynyl-1H-1,3-benzodiazol-2-yl)-5-(3-fluoro-5-methylphenyl)pyridin-2-amine], the EC50 is reported as under 0.01 µM.

Cc1cc(F)cc(-c2cnc(N)c(-c3nc4cc(OC5CCC5)ccc4[nH]3)c2N2CCC(N)CC2)c1 [Compound 1-19, 4-(4-aminopiperidin-1-yl)-3-(5-cyclobutoxy-1H-1,3-benzodiazol-2-yl)-5-(3-fluoro-5-methylphenyl)pyridin-2-amine] was tested, and the EC50 was under 0.01 µM.

Work on Cc1cc(F)cc(-c2cnnc(-c3nc4cc(C#N)ccc4[nH]3)c2N2CCC(N)CC2)c1 [Compound 3-22, 2-[4-(4-aminopiperidin-1-yl)-5-(3-fluoro-5-methylphenyl)pyridazin-3-yl]-1H-1,3-benzodiazole-5-carbonitrile] yielded an EC50 of under 0.01 µM.

Work on Cc1cc(F)cc(-c2cnnc(-c3cc4cccc(Cl)c4[nH]3)c2N2CCC(N)CC2)c1 [Compound 3-7, 1-[3-(7-chloro-1H-indol-2-yl)-5-(3-fluoro-5-methylphenyl)pyridazin-4-yl]piperidin-4-amine] yielded an EC50 of under 0.01 µM.

Compound COc1cc(F)cc2nc(-c3c(N)ncc(-c4cc(F)cc(Cl)c4)c3N3CCC(N)CC3)[nH]c12 [Compound 1-90, 4-(4-aminopiperidin-1-yl)-5-(3-chloro-5-fluorophenyl)-3-(5-fluoro-7-methoxy-1H-1,3-benzodiazol-2-yl)pyridin-2-amine] has an EC50 of under 0.01 µM.

In the case of Cc1cc(F)cc(-c2cnc(O)c(-c3nc4cc(Cl)ccc4[nH]3)c2N2CCC(N)CC2)c1 [Compound 2-4, 4-(4-aminopiperidin-1-yl)-3-(5-chloro-1H-1,3-benzodiazol-2-yl)-5-(3-fluoro-5-methylphenyl)pyridin-2-ol], the EC50 is reported as under 0.01 µM.

Work on CONC(=O)c1ccc2[nH]c(-c3c(N)ncc(-c4cc(C)cc(F)c4)c3N3CCC(N)CC3)nc2c1 [Compound 1-23, 2-[2-amino-4-(4-aminopiperidin-1-yl)-5-(3-fluoro-5-methylphenyl)pyridin-3-yl]-N-methoxy-1H-1,3-benzodiazole-5-carboxamide] yielded an EC50 of 0.01 to 0.1 µM.

Cc1cc(F)cc(-c2cnnc(-c3[nH]c4cc(C#N)ccc4c3C#N)c2N2CCC(N)CC2)c1 [Compound 3-26, 2-[4-(4-aminopiperidin-1-yl)-5-(3-fluoro-5-methylphenyl)pyridazin-3-yl]-1H-indole-3,6-dicarbonitrile] gave an EC50 of under 0.01 µM.

For COc1ncc(-c2cc(C)cc(Cl)c2)c(N2CCC(N)CC2)c1/C=N/OC(C)(C)C [Compound 2-12, 1-{3-[(1E)-[(tert-butoxy)imino]methyl]-5-(3-chloro-5-methylphenyl)-2-methoxypyridin-4-yl}piperidin-4-amine], the EC50 was over 0.1 µM.

Work on Cc1cc(F)cc(-c2cnc(O)c(-c3nc4cc(F)ccc4[nH]3)c2N2CCC(N)CC2)c1 [Compound 2-10, 4-(4-aminopiperidin-1-yl)-3-(5-fluoro-1H-1,3-benzodiazol-2-yl)-5-(3-fluoro-5-methylphenyl)pyridin-2-ol] yielded an EC50 of 0.01 to 0.1 µM.

In the case of Nc1ncc(-c2cc(F)cc(F)c2)c(N2CCC(N)CC2)c1-c1nc2cc(Cl)cc(F)c2[nH]1 [Compound 1-82, 4-(4-aminopiperidin-1-yl)-3-(5-chloro-7-fluoro-1H-1,3-benzodiazol-2-yl)-5-(3,5-difluorophenyl)pyridin-2-amine], the EC50 is reported as under 0.01 µM.

Work on CON=Cc1cc(F)c2[nH]c(-c3c(N)ncc(-c4cc(C)cc(F)c4)c3N3CCC(N)CC3)nc2c1 [Compound 1-61, 4-(4-aminopiperidin-1-yl)-5-(3-fluoro-5-methylphenyl)-3-{7-fluoro-5-[(methoxyimino)methyl]-1H-1,3-benzodiazol-2-yl}pyridin-2-amine] yielded an EC50 of under 0.01 µM.

Work on Cc1cc(F)cc(-c2cnnc(-c3cc4ccc(Cl)cc4[nH]3)c2N2CCC(N)CC2)c1 [Compound 3-2, 1-[3-(6-chloro-1H-indol-2-yl)-5-(3-fluoro-5-methylphenyl)pyridazin-4-yl]piperidin-4-amine] yielded an EC50 of under 0.01 µM.

COc1ncc(-c2cc(C)cc(F)c2)c(N2CCC(N)CC2)c1-c1nc2nc(Cl)ccc2[nH]1 [Compound 2-13, 1-(3-{5-chloro-1H-imidazo[4,5-b]pyridin-2-yl}-5-(3-fluoro-5-methylphenyl)-2-methoxypyridin-4-yl)piperidin-4-amine] showed an EC50 of under 0.01 µM.

Work on “4-(4-aminopiperidin-1-yl)-5-(3-fluoro-5-methylphenyl)-3-(7-methoxy-1H-1,3-benzodiazol-2-yl)pyridin-2-amine [Compound 1-13]” yielded an EC50 of under 0.01 µM.

For COC(=O)c1ccc2cc(-c3nncc(-c4cc(C)cc(F)c4)c3N3CCC(N)CC3)[nH]c2c1 [Compound 3-18, methyl 2-[4-(4-aminopiperidin-1-yl)-5-(3-fluoro-5-methylphenyl)pyridazin-3-yl]-1H-indole-6-carboxylate], the EC50 was under 0.01 µM.

C=Cn1c(-c2c(N)ncc(-c3cc(C)cc(F)c3)c2N2CCC(N)CC2)nc2cc(F)c(F)cc21 [Compound 1-4, 4-(4-aminopiperidin-1-yl)-3-(1-ethenyl-5,6-difluoro-1H-1,3-benzodiazol-2-yl)-5-(3-fluoro-5-methylphenyl)pyridin-2-amine] was tested, and the EC50 was under 0.01 µM.

With CONC(=O)c1ccc2cc(-c3nncc(-c4cc(C)cc(F)c4)c3N3CCC(N)CC3)[nH]c2c1 [Compound 3-20, 2-[4-(4-aminopiperidin-1-yl)-5-(3-fluoro-5-methylphenyl)pyridazin-3-yl]-N-methoxy-1H-indole-6-carboxamide] the EC50 was 0.01 to 0.1 µM.

Work on Cc1cc(C)cc(-c2cnc(N)c(-c3nc4cc(F)cc(F)c4[nH]3)c2N2CCC(N)CC2)c1 [Compound 1-78, 4-(4-aminopiperidin-1-yl)-3-(5,7-difluoro-1H-1,3-benzodiazol-2-yl)-5-(3,5-dimethylphenyl)pyridin-2-amine] yielded an EC50 of under 0.01 µM.

Compound COc1ncc(-c2cc(C)cc(F)c2)c(N2CCC(N)CC2)c1-c1nc2cc(C#N)ccc2[nH]1 [Compound 2-8, 2-[4-(4-aminopiperidin-1-yl)-5-(3-fluoro-5-methylphenyl)-2-methoxypyridin-3-yl]-1H-1,3-benzodiazole-5-carbonitrile] has an EC50 of under 0.01 µM.

Compound CNc1ncc(-c2cc(C)cc(F)c2)c(N2CCC(N)CC2)c1-c1nc2cccc(Cl)c2[nH]1 [Compound 1-72, 4-(4-aminopiperidin-1-yl)-3-(7-chloro-1H-1,3-benzodiazol-2-yl)-5-(3-fluoro-5-methylphenyl)-N-methylpyridin-2-amine] has an EC50 of under 0.01 µM.

Cc1cc(F)cc(-c2cnnc(-c3[nH]c4cc(C#N)ccc4c3Cl)c2N2CCC(N)CC2)c1 [Compound 3-24, 2-[4-(4-aminopiperidin-1-yl)-5-(3-fluoro-5-methylphenyl)pyridazin-3-yl]-3-chloro-1H-indole-6-carbonitrile] gave an EC50 of under 0.01 µM.

Cc1cc(F)cc(-c2cnc(N3CCNCC3)c(-c3nc4cc(Cl)ccc4[nH]3)c2N2CCC(N)CC2)c1 [Compound 4-11, 1-[3-(5-chloro-1H-1,3-benzodiazol-2-yl)-5-(3-fluoro-5-methylphenyl)-2-(piperazin-1-yl)pyridin-4-yl]piperidin-4-amine] gave an EC50 of under 0.01 µM.

Compound Cc1cc(F)cc(-c2cnc(O)c(-c3nc4cc(F)c(F)cc4[nH]3)c2N2CCC(N)CC2)c1 [Compound 2-7, 4-(4-aminopiperidin-1-yl)-3-(5,6-difluoro-1H-1,3-benzodiazol-2-yl)-5-(3-fluoro-5-methylphenyl)pyridin-2-ol] has an EC50 of 0.01 to 0.1 µM.

Cc1cc(F)cc(-c2cnnc(-c3nc4cc(Cl)ccc4[nH]3)c2N2CCC(N)CC2)c1 [Compound 3-3, 1-[3-(5-chloro-1H-1,3-benzodiazol-2-yl)-5-(3-fluoro-5-methylphenyl)pyridazin-4-yl]piperidin-4-amine] was tested, and the EC50 was under 0.01 µM.
